Measurements published in PubChem BioAssay (NCI).
“And” between values parts separate entries of the source, which are not always exact repeats. Identical values can stand only once.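 Interpolation was linear, between the two tested concentrations surrounding the appropriate level; five concentrations were tested over 48 hours in 96-well plates. Here, GI50 denotes the concentration required for 50% inhibition of growth. TGI marks complete inhibition of growth.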

Columns and labels:
Assay in all cases: inhibition of tumour cell growth, NCI panel, 48 h; in the data active = GI50 below about 0.43 µM; inactive = the rest
[1] = system: LOX IMVI melanoma
[2] = system: SNB-19 CNS
[3] = system: SF-268 CNS
[4] = system: EKVX NSCLC
[5] = system: SN12C renal
[6] = system: HT29 colon
[7] = system: MOLT-4 leukemia
[8] = system: RPMI-8226 leukemia
[9] = system: T-47D breast
[10] = system: PC-3 prostate

COC(=O)CCC(=O)CC1CC(=O)C2CCCN12 (centres undefined)
> 100 µM: TGI [1] | TGI [2] | TGI [3] | TGI [4] | TGI [5] | TGI [6] | TGI [7] | TGI [8]

O=c1[nH]c2cc(Cl)ccc2nc1/C(=N\O)C(O)c1ccc(Cl)cc1Cl (centres undefined)
> 100 µM: TGI [1] | TGI [2] | TGI [3] | TGI [5] | TGI [6] | TGI [7] | TGI [8]

CCc1ccccc1NC(=O)c1sc2nc3c(cc2c1N)C(=O)CCC3
inactive: GI50 [1] 0.669 µM | GI50 [2] 0.801 µM | GI50 [3] 11.9 µM | GI50 [5] 0.729 µM | GI50 [9] 0.533 µM | GI50 [10] 0.461 µM | GI50 [7] 5.29 µM | GI50 [8] 0.782 µM
29.5 µM: TGI [6]
> 79.8 µM: TGI [9]
> 30.9 µM: TGI [8]
> 100 µM: TGI [1] | TGI [2] | TGI [3] | TGI [5] | TGI [10] | TGI [7]
active: GI50 [6] 0.372 µM

COc1cccc(-n2c3nc(=O)n(C)c(=O)c-3nc3ccccc32)c1
> 100 µM: TGI [8]
74.3 µM: TGI [2]
30.8 µM: TGI [5]
82.1 µM: TGI [4]
40.6 µM: TGI [7]
40.8 µM: TGI [6]
53.9 µM: TGI [3]

COc1ccc(-c2ccc(/C=N/n3c(C)n[nH]c3=S)o2)c([N+](=O)[O-])c1
inactive: GI50 [2] > 100 µM | GI50 [3] 47.5 µM | GI50 [4] > 100 µM | GI50 [5] > 100 µM | GI50 [9] > 100 µM | GI50 [6] > 100 µM | GI50 [10] > 100 µM | GI50 [7] > 100 µM | GI50 [8] > 100 µM
> 100 µM: TGI [2] | TGI [3] | TGI [4] | TGI [5] | TGI [9] | TGI [6] | TGI [10] | TGI [7] | TGI [8]

O=c1[nH]cnc2cccc(Cl)c12
> 100 µM: TGI [2] | TGI [3] | TGI [4] | TGI [5] | TGI [9] | TGI [6] | TGI [10] | TGI [7]

COc1ccc(Nc2c3ccccc3nc3occ(Cl)c23)cc1
> 44.5 µM: TGI [7]
13.6 µM: TGI [10]
active: GI50 [3] 0.0368 µM | GI50 [5] 0.0858 µM | GI50 [9] 0.0883 µM | GI50 [6] < 0.0145 µM | GI50 [10] < 0.01 µM | GI50 [7] 0.0266 µM | GI50 [8] 0.0145 µM
> 34.8 µM: TGI [6]
0.571 µM: TGI [8]
21.5 µM: TGI [3]
> 38.2 µM: TGI [2]
inactive: GI50 [2] 0.48 µM | GI50 [4] 1.76 µM
19 µM: TGI [5]
> 100 µM: TGI [9]
6.89 µM: TGI [4]

O=C(Nc1cc(Cl)ccc1Cl)C(=O)C(c1cnc2ccccc2n1)[N+](=O)[O-] (centres undefined)
> 100 µM: TGI [1] | TGI [2] | TGI [3] | TGI [4] | TGI [5] | TGI [6] | TGI [7] | TGI [8]

O=C1[C@H]2ON(c3ccccc3)C(c3ccc(Cl)cc3)[C@H]2C(=O)N1c1ccc(Cc2ccc(N3C(=O)[C@@H]4ON(c5ccccc5)C(c5ccc(Cl)cc5)[C@@H]4C3=O)cc2)cc1 (some centres undefined)
> 100 µM: TGI [1] | TGI [2] | TGI [3] | TGI [4] | TGI [5] | TGI [6] | TGI [7] | TGI [8]

COC(=O)/C(C#N)=C1\CCC(O)N1 (centres undefined)
> 100 µM: TGI [1] | TGI [2] | TGI [3] | TGI [4] | TGI [5] | TGI [6] | TGI [7] | TGI [8]

CN[C@@H](C)[C@H](NC)c1ccccc1
> 100 µM: TGI [1] | TGI [2] | TGI [4] | TGI [5] | TGI [6] | TGI [7] | TGI [8]

NC(N)=NCCCCCNc1noc(Cc2c[nH]c3cc(Br)ccc23)n1
79.6 µM: TGI [10]
27.8 µM: TGI [3]
32.3 µM: TGI [9]
> 100 µM: TGI [6]
47.1 µM: TGI [8]
36.3 µM: TGI [7]
18.8 µM: TGI [5]
20.4 µM: TGI [2]
inactive: GI50 [1] 10.6 µM | GI50 [2] 3.62 µM | GI50 [3] 3.54 µM | GI50 [5] 3.87 µM | GI50 [9] 6.04 µM | GI50 [6] 19.5 µM | GI50 [10] 2.57 µM | GI50 [7] 8.12 µM | GI50 [8] 6.78 µM
45.2 µM: TGI [1]

Cc1cc(C)c(C2[C@H]3C(=O)N(c4ccc(Cc5ccc(N6C(=O)[C@@H]7ON(c8ccccc8)C(c8c(C)cc(C)cc8C)[C@@H]7C6=O)cc5)cc4)C(=O)[C@H]3ON2c2ccccc2)c(C)c1 (some centres undefined)
> 100 µM: TGI [1] | TGI [2] | TGI [3] | TGI [4] | TGI [5] | TGI [6] | TGI [7] | TGI [8]

CN(C)C(=S)/N=c1\ss/c(=N\C(=S)N(C)C)n1-c1ccc(Cl)c(Cl)c1
> 100 µM: TGI [1] | TGI [2] | TGI [3] | TGI [4] | TGI [5] | TGI [6] | TGI [7] | TGI [8]

CC(C)N=c1cc2n(-c3ccc(Cl)cc3)c3ccccc3nc-2cc1Nc1ccc(Cl)cc1
2.62 µM: TGI [8]
> 100 µM: TGI [4] | TGI [5] | TGI [7]
> 50 µM and 6.27 µM: TGI [6]
> 50 µM: TGI [2] | TGI [3] | TGI [9] | TGI [10]
inactive: GI50 [2] 2.21 µM | GI50 [3] 1.73 µM | GI50 [4] 1.4 µM | GI50 [5] 0.92 µM and 2.74 µM | GI50 [9] 2.37 µM | GI50 [6] 0.537 µM and 0.827 µM | GI50 [10] 0.891 µM and 1.9 µM | GI50 [7] 2.56 µM | GI50 [8] 0.821 µM

O=C1CC2C(=O)N(Cc3ccccc3)C1C=C2S(=O)(=O)c1ccccc1 (centres undefined)
> 100 µM: TGI [1] | TGI [2] | TGI [3] | TGI [4] | TGI [5] | TGI [6] | TGI [7]

Cc1cc(S(=O)(=O)N/N=C(\Sc2cc(Cl)c(C)cc2S(N)(=O)=O)c2ccc(Cl)cc2)c(Cl)cc1Cl
99.6 µM: TGI [1]
inactive: GI50 [1] 30.8 µM | GI50 [2] > 100 µM | GI50 [3] > 100 µM | GI50 [4] > 100 µM | GI50 [5] 97.2 µM | GI50 [10] 86.4 µM | GI50 [7] 48.3 µM | GI50 [8] 27.3 µM
> 100 µM: TGI [2] | TGI [3] | TGI [4] | TGI [5] | TGI [10] | TGI [7]
86.4 µM: TGI [8]

Cc1cc2c(cc1Cl)SC(=Nc1ccc(Cl)cc1)N(S(=O)(=O)c1ccccc1)S2(=O)=O
23.1 µM: TGI [10]
> 100 µM: TGI [2]
28.7 µM: TGI [5]
inactive: GI50 [1] 1.58 µM | GI50 [2] 20.6 µM | GI50 [3] 13.8 µM | GI50 [4] 15.1 µM | GI50 [5] 13.8 µM | GI50 [10] 10.9 µM | GI50 [8] 2.67 µM
29.3 µM: TGI [4]
7.18 µM: TGI [1]
14.7 µM: TGI [8]
34.8 µM: TGI [3]
